Measurements as given in the supplement of paper PMC11451515.

Tests used:
Settings in all cases: 48 h
P12-Ichikawa [1] = experiment: AUC of viability dose-response curve (% viability x log10 dose units); higher = less sensitive
How it was run: (§1)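 Leukemia cells adapted to each medium (500 or 1000 cells/well, 1536-well plates) were exposed to library compounds in DMSO for 48 h at 37°C at 11 threefold doses, 47 μM to 0.79 nM. Luminescence by CellTiter-Glo One was normalised per plate to DMSO and cell-free wells, then fitted with a four-parameter log-logistic curve on log10 dose. Curves above full viability were scaled and quality-control failures removed before area under the curve was integrated by trapezoidal rule.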

SEM cells [2] = experiment: as above
How it was run: as §1

NOMO1 [3] = experiment: as above
How it was run: as §1

P12-Ichikawa [4] = experiment: cell viability relative to DMSO control; higher = less cytotoxic
How it was run: (§2)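 In 1536-well plates, 5 μl of leukemia cells were seeded per well: 500 cells/well for NOMO1 or SEM and 1000 cells/well for P12-Ichikawa. Each line had first been adapted for at least four passages in each medium. Library compounds in DMSO were pin-dosed at 11 threefold concentrations between 47 μM and 0.79 nM, and CellTiter-Glo One luminescence was read after 48 h at 37°C. Viability is a per-plate percentage relative to DMSO wells, with cell-free wells as background.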

SEM cells [5] = experiment: as above
How it was run: as §2

NOMO1 [6] = experiment: as above
How it was run: as §2

CN1\C(=C(\O)C2=CC=CC=C2[S+]1([O-])=O)C(=O)NC3=NC=C(C)S3
AUC of viability dose-response curve
Settings | NOMO1 [3] | P12-Ichikawa [1] | SEM cells [2]
HPLM + 10% dialyzed FBS | 476 | 416 | 447
RPMI 5 mM glucose + 10% FBS | 449 | 392 | 427
RPMI 5 mM glucose + 10% dialyzed FBS | 410 | 420 | 430

cell viability [%]
Settings | NOMO1 [6] | P12-Ichikawa [4] | SEM cells [5]
HPLM + 10% dialyzed FBS, 0.000781 µM | 101 | 95 | 94.9
HPLM + 10% dialyzed FBS, 0.00234 µM | 111 | 95.7 | 94.8
HPLM + 10% dialyzed FBS, 0.00702 µM | 101 | 93.9 | 98.2
HPLM + 10% dialyzed FBS, 0.0211 µM | 114 | 94.6 | 103
HPLM + 10% dialyzed FBS, 0.0632 µM | 99.5 | 99.3 | 87.8
HPLM + 10% dialyzed FBS, 0.19 µM | 116 | 100 | 85.2
HPLM + 10% dialyzed FBS, 0.569 µM | 113 | 98.4 | 90.2
HPLM + 10% dialyzed FBS, 1.71 µM | 116 | 98.3 | 83.1
HPLM + 10% dialyzed FBS, 5.12 µM | 102 | 101 | 99.9
HPLM + 10% dialyzed FBS, 15.4 µM | 86.1 | 97.5 | 96.7
HPLM + 10% dialyzed FBS, 46.1 µM | 116 | 112 | 102
RPMI 5 mM glucose + 10% FBS, 0.000781 µM | 81.1 | 91.8 | 74.8
RPMI 5 mM glucose + 10% FBS, 0.00234 µM | 91.5 | 91.7 | 81.5
RPMI 5 mM glucose + 10% FBS, 0.00702 µM | 88.4 | 88 | 94.5
RPMI 5 mM glucose + 10% FBS, 0.0211 µM | 91.7 | 86 | 97.7
RPMI 5 mM glucose + 10% FBS, 0.0632 µM | 98.7 | 93.8 | 78
RPMI 5 mM glucose + 10% FBS, 0.19 µM | 96.8 | 88.8 | 90.2
RPMI 5 mM glucose + 10% FBS, 0.569 µM | 101 | 84.8 | 103
RPMI 5 mM glucose + 10% FBS, 1.71 µM | 88.3 | 89 | 78.3
RPMI 5 mM glucose + 10% FBS, 5.12 µM | 96.7 | 95.4 | 104
RPMI 5 mM glucose + 10% FBS, 15.4 µM | 99.3 | 96.7 | 84
RPMI 5 mM glucose + 10% FBS, 46.1 µM | 95.9 | 112 | 91.3
RPMI 5 mM glucose + 10% dialyzed FBS, 0.000781 µM | 84.2 | 79.3 | 77.4
RPMI 5 mM glucose + 10% dialyzed FBS, 0.00234 µM | 86.3 | 92.8 | 99.6
RPMI 5 mM glucose + 10% dialyzed FBS, 0.00702 µM | 85.6 | 83.1 | 94.6
RPMI 5 mM glucose + 10% dialyzed FBS, 0.0211 µM | 81.9 | 91.4 | 97
RPMI 5 mM glucose + 10% dialyzed FBS, 0.0632 µM | 81.5 | 96.2 | 80.7
RPMI 5 mM glucose + 10% dialyzed FBS, 0.19 µM | 93.6 | 87 | 107
RPMI 5 mM glucose + 10% dialyzed FBS, 0.569 µM | 79.6 | 92.7 | 99.9
RPMI 5 mM glucose + 10% dialyzed FBS, 1.71 µM | 76 | 87.8 | 95.1
RPMI 5 mM glucose + 10% dialyzed FBS, 5.12 µM | 91.9 | 80.8 | 106
RPMI 5 mM glucose + 10% dialyzed FBS, 15.4 µM | 92.7 | 90 | 107
RPMI 5 mM glucose + 10% dialyzed FBS, 46.1 µM | 91.8 | 86.7 | 108

COC(=O)[C@@H]1[C@H]2C[C@H]3c4[nH]c5ccccc5c4CCN3C[C@@H]2CC[C@@H]1O
AUC of viability dose-response curve
Settings | NOMO1 [3] | P12-Ichikawa [1] | SEM cells [2]
HPLM + 10% dialyzed FBS | 356 | 373 | 440
RPMI 5 mM glucose + 10% FBS | 325 | 378 | 441
RPMI 5 mM glucose + 10% dialyzed FBS | 350 | 402 | 451

cell viability [%]
Settings | NOMO1 [6] | P12-Ichikawa [4] | SEM cells [5]
HPLM + 10% dialyzed FBS, 0.000781 µM | 120 | 113 | 86.1
HPLM + 10% dialyzed FBS, 0.00234 µM | 127 | 118 | 90.4
HPLM + 10% dialyzed FBS, 0.00702 µM | 122 | 122 | 102
HPLM + 10% dialyzed FBS, 0.0211 µM | 131 | 116 | 110
HPLM + 10% dialyzed FBS, 0.0632 µM | 132 | 122 | 104
HPLM + 10% dialyzed FBS, 0.19 µM | 128 | 128 | 110
HPLM + 10% dialyzed FBS, 0.569 µM | 108 | 121 | 120
HPLM + 10% dialyzed FBS, 1.71 µM | 41.2 | 117 | 115
HPLM + 10% dialyzed FBS, 5.12 µM | 39.8 | 20.8 | 116
HPLM + 10% dialyzed FBS, 15.4 µM | 44.5 | 14.4 | 120
HPLM + 10% dialyzed FBS, 46.1 µM | 35.6 | 12.4 | 116
RPMI 5 mM glucose + 10% FBS, 0.000781 µM | – | – | 94.7
RPMI 5 mM glucose + 10% FBS, 0.00234 µM | – | – | 112
RPMI 5 mM glucose + 10% FBS, 0.00702 µM | – | – | 122
RPMI 5 mM glucose + 10% FBS, 0.0211 µM | – | – | 104
RPMI 5 mM glucose + 10% FBS, 0.0632 µM | – | – | 110
RPMI 5 mM glucose + 10% FBS, 0.19 µM | – | – | 110
RPMI 5 mM glucose + 10% FBS, 0.569 µM | – | – | 135
RPMI 5 mM glucose + 10% FBS, 1.71 µM | – | – | 119
RPMI 5 mM glucose + 10% FBS, 5.12 µM | – | – | 120
RPMI 5 mM glucose + 10% FBS, 15.4 µM | – | – | 128
RPMI 5 mM glucose + 10% FBS, 46.1 µM | – | – | 125
RPMI 5 mM glucose + 10% dialyzed FBS, 0.000781 µM | – | 103 | 98.6
RPMI 5 mM glucose + 10% dialyzed FBS, 0.00234 µM | – | 114 | 109
RPMI 5 mM glucose + 10% dialyzed FBS, 0.00702 µM | – | 114 | 108
RPMI 5 mM glucose + 10% dialyzed FBS, 0.0211 µM | – | 124 | 120
RPMI 5 mM glucose + 10% dialyzed FBS, 0.0632 µM | – | 111 | 125
RPMI 5 mM glucose + 10% dialyzed FBS, 0.19 µM | – | 124 | 124
RPMI 5 mM glucose + 10% dialyzed FBS, 0.569 µM | – | 127 | 119
RPMI 5 mM glucose + 10% dialyzed FBS, 1.71 µM | – | 128 | 133
RPMI 5 mM glucose + 10% dialyzed FBS, 5.12 µM | – | 70.6 | 130
RPMI 5 mM glucose + 10% dialyzed FBS, 15.4 µM | – | 32.9 | 133
RPMI 5 mM glucose + 10% dialyzed FBS, 46.1 µM | – | 17.9 | 118

O=C(Nc1ccccc1-c1cn2c(CN3CCNCC3)csc2n1)c1cnc2ccccc2n1
AUC of viability dose-response curve
Settings | NOMO1 [3] | P12-Ichikawa [1] | SEM cells [2]
HPLM + 10% dialyzed FBS | 381 | 388 | 364
RPMI 5 mM glucose + 10% FBS | 350 | 369 | 366
RPMI 5 mM glucose + 10% dialyzed FBS | 391 | 361 | 310

cell viability [%]
Settings | NOMO1 [6] | P12-Ichikawa [4] | SEM cells [5]
HPLM + 10% dialyzed FBS, 0.000781 µM | 91.8 | 84.5 | 61.2
HPLM + 10% dialyzed FBS, 0.00234 µM | 83 | 89.8 | 97.4
HPLM + 10% dialyzed FBS, 0.00702 µM | 71.9 | 89.3 | 109
HPLM + 10% dialyzed FBS, 0.0211 µM | 77.7 | 84.4 | 98.1
HPLM + 10% dialyzed FBS, 0.0632 µM | 82.6 | 90.1 | 81.4
HPLM + 10% dialyzed FBS, 0.19 µM | 92 | 88.3 | 81.1
HPLM + 10% dialyzed FBS, 0.569 µM | 81.9 | 85.3 | 90.5
HPLM + 10% dialyzed FBS, 1.71 µM | 66.6 | 84.5 | 67.5
HPLM + 10% dialyzed FBS, 5.12 µM | 79.3 | 83.9 | 72.5
HPLM + 10% dialyzed FBS, 15.4 µM | 74.2 | 75.3 | 48.3
HPLM + 10% dialyzed FBS, 46.1 µM | 76.3 | 0.861 | 1.98
RPMI 5 mM glucose + 10% FBS, 0.000781 µM | 76.6 | 80.4 | 71.4
RPMI 5 mM glucose + 10% FBS, 0.00234 µM | 80.6 | 85.3 | 107
RPMI 5 mM glucose + 10% FBS, 0.00702 µM | 82.9 | 83.6 | 95.2
RPMI 5 mM glucose + 10% FBS, 0.0211 µM | 85.1 | 85.2 | 103
RPMI 5 mM glucose + 10% FBS, 0.0632 µM | 79.7 | 86.5 | 76
RPMI 5 mM glucose + 10% FBS, 0.19 µM | 85.3 | 86.1 | 84.4
RPMI 5 mM glucose + 10% FBS, 0.569 µM | 70.3 | 79.8 | 94.8
RPMI 5 mM glucose + 10% FBS, 1.71 µM | 68.1 | 76.2 | 67.4
RPMI 5 mM glucose + 10% FBS, 5.12 µM | 77.1 | 82.9 | 54.3
RPMI 5 mM glucose + 10% FBS, 15.4 µM | 65.6 | 67.9 | 59.2
RPMI 5 mM glucose + 10% FBS, 46.1 µM | 0.639 | 1.29 | 2.64
RPMI 5 mM glucose + 10% dialyzed FBS, 0.000781 µM | 86.3 | 83 | 56.4
RPMI 5 mM glucose + 10% dialyzed FBS, 0.00234 µM | 84.6 | 84 | 93.2
RPMI 5 mM glucose + 10% dialyzed FBS, 0.00702 µM | 96 | 80.3 | 84.5
RPMI 5 mM glucose + 10% dialyzed FBS, 0.0211 µM | 90.5 | 80.5 | 86.5
RPMI 5 mM glucose + 10% dialyzed FBS, 0.0632 µM | 80 | 78.1 | 65.4
RPMI 5 mM glucose + 10% dialyzed FBS, 0.19 µM | 80.2 | 87.4 | 80.1
RPMI 5 mM glucose + 10% dialyzed FBS, 0.569 µM | 74.2 | 78.4 | 79.5
RPMI 5 mM glucose + 10% dialyzed FBS, 1.71 µM | 86.8 | 78.7 | 52.6
RPMI 5 mM glucose + 10% dialyzed FBS, 5.12 µM | 79.4 | 77.8 | 53.9
RPMI 5 mM glucose + 10% dialyzed FBS, 15.4 µM | 69 | 69 | 37.4
RPMI 5 mM glucose + 10% dialyzed FBS, 46.1 µM | 75.1 | 1.1 | 2.76
